Reference: patent publication US20260355165A1, “2,3,4,9-TETRAHYDRO-1H-PYRIDO[3,4-B]INDOLE DERIVATIVES AS ESTROGEN RECEPTOR MODULATORS FOR THE TREATMENT OF CANCER” (Olema Pharmaceuticals, Inc., priority 2022, published 2026)

Molecular target: T1, estrogen receptor (Homo sapiens, UniProt P03372)
T1 construct: endogenous in cells; host or cells: ECC-1 cells
T1 sequence (P03372 1-595): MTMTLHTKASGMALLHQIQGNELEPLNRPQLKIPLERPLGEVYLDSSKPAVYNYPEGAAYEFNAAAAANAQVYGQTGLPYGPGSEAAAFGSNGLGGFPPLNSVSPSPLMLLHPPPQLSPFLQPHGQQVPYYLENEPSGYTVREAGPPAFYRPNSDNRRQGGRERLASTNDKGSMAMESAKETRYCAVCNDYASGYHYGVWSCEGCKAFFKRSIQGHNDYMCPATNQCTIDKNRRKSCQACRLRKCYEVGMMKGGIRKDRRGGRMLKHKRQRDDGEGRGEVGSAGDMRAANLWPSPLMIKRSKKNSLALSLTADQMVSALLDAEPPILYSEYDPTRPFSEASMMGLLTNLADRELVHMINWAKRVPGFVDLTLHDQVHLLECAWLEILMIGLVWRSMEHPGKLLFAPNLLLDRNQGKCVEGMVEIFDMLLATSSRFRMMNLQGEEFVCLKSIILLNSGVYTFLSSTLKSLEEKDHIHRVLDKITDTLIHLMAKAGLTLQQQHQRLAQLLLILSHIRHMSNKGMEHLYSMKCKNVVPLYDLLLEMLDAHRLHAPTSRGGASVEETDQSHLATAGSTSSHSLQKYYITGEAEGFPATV
Experiment: AP assay (alkaline phosphatase activity in ECC-1 cells), agonist mode (absence of E2) and antagonist mode (presence of 500 pM E2)
Type: cell-based
Conditions: for Activity (estrogen receptor modulation, e.g., agonism and antagonism): 3 days, AP activity normalized to 500 pM E2 alone, agonist and antagonist mode combined
Method in brief: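 Read-out is absorbance at 405 nm from p-nitrophenyl phosphate cleavage (40 min, 42 °C), expressed relative to 500 pM E2 alone. Compounds were applied to ECC-1 cells in hormone-depleted medium for 3 days, either alone (agonist) or alongside 500 pM E2 (antagonist).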

Row | Structure (SMILES) | Activity (estrogen receptor modulation, e.g., agonism and antagonism) | other results
1 | C[C@@H]1Cc2c([nH]c3ccccc23)[C@@H](c2ccc3[nH]c(CN4CC(C(F)F)C4)cc3c2)N1CC(C)(C)F [Compound I-100, (1R,3R)-1-[2-[[3-(difluoromethyl)azetidin-1-yl]methyl]-1H-indol-5-yl]-2-(2-fluoro-2-methyl-propyl)-3-methyl-1,3,4,9-tetrahydropyrido[3,4-b]indole] | ++ (estrogen receptor antagonism having (i) between 10% and 80% increase in the E2-normalized signal in the AP assay (agonist mode) and (ii) between 10% and 80% reduction in the E2-normalized signal in the AP assay (antagonist mode)) | –
2 | CC[C@H]1CCN(Cc2cc3sc([C@@H]4c5[nH]c6ccccc6c5C[C@@H](C)N4CC(C)(C)F)cc3[nH]2)C1 [Compound I-68, 5-[[(3S)-3-ethylpyrrolidin-1-yl]methyl]-2-[(1S,3R)-2-(2-fluoro-2-methyl-propyl)-3-methyl-1,3,4,9-tetrahydropyrido[3,4-b]indol-1-yl]-4H-thieno[3,2-b]pyrrole] | + (estrogen receptor agonism having (i) at least 80% increase in the E2-normalized signal in the AP assay (agonist mode) and (ii) no more than 80% reduction in the E2-normalized signal in the AP assay (antagonist mode)) | –
3 | C[C@@H]1Cc2c([nH]c3ccccc23)[C@@H](c2ccc3nc(CN4CC(CF)C4)oc3c2)N1CC(C)(C)F [Compound I-72, 2-[[3-(fluoromethyl)azetidin-1-yl]methyl]-6-[(1R,3R)-2-(2-fluoro-2-methyl-propyl)-3-methyl-1,3,4,9-tetrahydropyrido[3,4-b]indol-1-yl]-1,3-benzoxazole] | + (estrogen receptor agonism having (i) at least 80% increase in the E2-normalized signal in the AP assay (agonist mode) and (ii) no more than 80% reduction in the E2-normalized signal in the AP assay (antagonist mode)) | –
4 | C[C@@H]1Cc2c([nH]c3ccccc23)[C@@H](c2ccc3oc(C4CN(CCCF)C4)nc3c2)N1CC(C)(C)F [Compound I-82, 5-[(1R,3R)-2-(2-fluoro-2-methyl-propyl)-3-methyl-1,3,4,9-tetrahydropyrido[3,4-b]indol-1-yl]-2-[1-(3-fluoropropyl)azetidin-3-yl]-1,3-benzoxazole] | + (estrogen receptor agonism having (i) at least 80% increase in the E2-normalized signal in the AP assay (agonist mode) and (ii) no more than 80% reduction in the E2-normalized signal in the AP assay (antagonist mode)) | –
5 | C[C@@H]1Cc2c([nH]c3ccccc23)[C@@H](c2c[nH]c3c(F)c(CN4CC(CF)C4)ccc23)N1CC(C)(C)F [Compound I-29, (1R,3R)-1-[7-fluoro-6-[[3-(fluoromethyl)azetidin-1-yl]methyl]-1H-indol-3-yl]-2-(2-fluoro-2-methyl-propyl)-3-methyl-1,3,4,9-tetrahydropyrido[3,4-b]indole] | ++ (estrogen receptor antagonism having (i) between 10% and 80% increase in the E2-normalized signal in the AP assay (agonist mode) and (ii) between 10% and 80% reduction in the E2-normalized signal in the AP assay (antagonist mode)) | –
6 | CCCN1CC(n2cc3cc([C@@H]4c5[nH]c6ccccc6c5C[C@@H](C)N4CC(F)(F)CO)ccc3n2)C1 (racemic) [Compound I-108, 2,2-difluoro-3-[rac-(1R,3R)-3-methyl-1-[2-(1-propylazetidin-3-yl)indazol-5-yl]-1,3,4,9-tetrahydropyrido[3,4-b]indol-2-yl]propan-1-ol] | + (estrogen receptor agonism having (i) at least 80% increase in the E2-normalized signal in the AP assay (agonist mode) and (ii) no more than 80% reduction in the E2-normalized signal in the AP assay (antagonist mode)) | –
7 | C[C@@H]1Cc2c([nH]c3ccccc23)[C@@H](c2ccc3[nH]c(CN4CC(CF)C4)cc3c2)N1CC(F)(F)C(F)(F)F [Compound I-110, (1R,3R)-1-[2-[[3-(fluoromethyl)azetidin-1-yl]methyl]-1H-indol-5-yl]-3-methyl-2-(2,2,3,3,3-pentafluoropropyl)-1,3,4,9-tetrahydropyrido[3,4-b]indole] | – | IC50 (AP assay, antagonist mode, 500 pM E2, 3 days): < 0.398 µM; increase in E2-normalized signal in the AP assay (agonist mode) (agonist mode, absence of E2, 3 days): no more than 10%; reduction in the E2-normalized signal in the AP assay (antagonist mode) (antagonist mode, 500 pM E2, 3 days): ≥ 10%
8 | CC1CN(Cc2cc3cc([C@@H]4c5[nH]c6ccccc6c5C[C@@H](C)N4CC(C)(C)F)sc3[nH]2)C1 [Compound I-62, 2-[(1S,3R)-2-(2-fluoro-2-methyl-propyl)-3-methyl-1,3,4,9-tetrahydropyrido[3,4-b]indol-1-yl]-5-[(3-methylazetidin-1-yl)methyl]-6H-thieno[2,3-b]pyrrole] | ++ (estrogen receptor antagonism having (i) between 10% and 80% increase in the E2-normalized signal in the AP assay (agonist mode) and (ii) between 10% and 80% reduction in the E2-normalized signal in the AP assay (antagonist mode)) | –
9 | C[C@@H]1Cc2c([nH]c3ccccc23)[C@@H](c2ccc3oc(CN4CC5(CCC5)C4)nc3c2)N1CC(C)(C)F [Compound I-77, 2-(2-azaspiro[3.3]heptan-2-ylmethyl)-5-[(1R,3R)-2-(2-fluoro-2-methyl-propyl)-3-methyl-1,3,4,9-tetrahydropyrido[3,4-b]indol-1-yl]-1,3-benzoxazole] | +++ (estrogen receptor antagonism (i) with pIC50 greater than 7.5 and at least a 10% reduction in the E2-normalized signal in the AP assay (antagonist mode); and (ii) no more than 10% increase in E2-normalized signal in the AP assay (agonist mode)) | –
10 | C[C@@H]1Cc2c([nH]c3ccccc23)[C@@H](c2ccc3[nH]c(CN4CC5(COC5)C4)cc3c2)N1CC(C)(C)F [Compound I-54, 6-[[5-[(1R,3R)-2-(2-fluoro-2-methyl-propyl)-3-methyl-1,3,4,9-tetrahydropyrido[3,4-b]indol-1-yl]-1H-indol-2-yl]methyl]-2-oxa-6-azaspiro[3.3]heptane] | + (estrogen receptor agonism having (i) at least 80% increase in the E2-normalized signal in the AP assay (agonist mode) and (ii) no more than 80% reduction in the E2-normalized signal in the AP assay (antagonist mode)) | –
11 | CC(C)C1CN(Cc2cc3cc([C@@H]4c5[nH]c6ccccc6c5C[C@@H](C)N4CC(C)(C)F)ccc3[nH]2)C1 [Compound I-95, (1R,3R)-2-(2-fluoro-2-methyl-propyl)-1-[2-[(3-isopropylazetidin-1-yl)methyl]-1H-indol-5-yl]-3-methyl-1,3,4,9-tetrahydropyrido[3,4-b]indole] | + (estrogen receptor agonism having (i) at least 80% increase in the E2-normalized signal in the AP assay (agonist mode) and (ii) no more than 80% reduction in the E2-normalized signal in the AP assay (antagonist mode)) | –
12 | C[C@@H]1Cc2c([nH]c3ccccc23)[C@@H](c2ccc3c(c2)nc(CN2CC(CF)C2)[s+]3[O-])N1CC(C)(C)F (stereo partly drawn) [Compound I-104, 2-[[3-(fluoromethyl)azetidin-1-yl]methyl]-5-[(1R,3R)-2-(2-fluoro-2-methyl-propyl)-3-methyl-1,3,4,9-tetrahydropyrido[3,4-b]indol-1-yl]-1,3-benzothiazole 1-oxide] | + (estrogen receptor agonism having (i) at least 80% increase in the E2-normalized signal in the AP assay (agonist mode) and (ii) no more than 80% reduction in the E2-normalized signal in the AP assay (antagonist mode)) | –
13 | C[C@@H]1Cc2c([nH]c3ccccc23)[C@@H](c2n[nH]c3cc(CN4CC(C#N)C4)ccc23)N1CC(C)(C)F [Compound I-32, 1-[[3-[(1S,3R)-2-(2-fluoro-2-methyl-propyl)-3-methyl-1,3,4,9-tetrahydropyrido[3,4-b]indol-1-yl]-1H-indazol-6-yl]methyl]azetidine-3-carbonitrile] | + (estrogen receptor agonism having (i) at least 80% increase in the E2-normalized signal in the AP assay (agonist mode) and (ii) no more than 80% reduction in the E2-normalized signal in the AP assay (antagonist mode)) | –
14 | C[C@@H]1Cc2c([nH]c3ccccc23)[C@@H](c2ccc3[nH]c(CO)cc3c2)N1CC(C)(C)F [Compound I-93, [5-[(1R,3R)-2-(2-fluoro-2-methyl-propyl)-3-methyl-1,3,4,9-tetrahydropyrido[3,4-b]indol-1-yl]-1H-indol-2-yl]methanol] | + (estrogen receptor agonism having (i) at least 80% increase in the E2-normalized signal in the AP assay (agonist mode) and (ii) no more than 80% reduction in the E2-normalized signal in the AP assay (antagonist mode)) | –
15 | C[C@@H]1Cc2c([nH]c3ccccc23)[C@@H](c2ccc3[nH]c(CN4CC5CC5C4)cc3c2)N1CC(C)(C)F (stereo partly drawn) [Compound I-43, (1R,3R)-1-[2-(3-azabicyclo[3.1.0]hexan-3-ylmethyl)-1H-indol-5-yl]-2-(2-fluoro-2-methyl-propyl)-3-methyl-1,3,4,9-tetrahydropyrido[3,4-b]indole] | + (estrogen receptor agonism having (i) at least 80% increase in the E2-normalized signal in the AP assay (agonist mode) and (ii) no more than 80% reduction in the E2-normalized signal in the AP assay (antagonist mode)) | –
